Read-outs that look alike come from different tables or passages of the source. Square brackets hold non-standard residues; d marks the D form. Peptide text beside a SMILES is read from it. αMeF = C[C@](N)(Cc1ccccc1)C(=O)O; Aib = CC(C)(N)C(=O)O
Key:
Type in all cases: cell-based
human GLP-1R = molecular target: T1, human GLP-1R (Homo sapiens, UniProt P43220); assay: Agonist activity against human GLP-1R, CRE-luciferase reporter assay in hGLP-1R/CRE-luc/CHO-K1 cells
T1 construct: expressed in transfected cells; host or cells: CHO-K1, plasmids hGLP-1/pIRESneo3 and Cre-luc(Zeo)
T1 sequence (P43220 24-463): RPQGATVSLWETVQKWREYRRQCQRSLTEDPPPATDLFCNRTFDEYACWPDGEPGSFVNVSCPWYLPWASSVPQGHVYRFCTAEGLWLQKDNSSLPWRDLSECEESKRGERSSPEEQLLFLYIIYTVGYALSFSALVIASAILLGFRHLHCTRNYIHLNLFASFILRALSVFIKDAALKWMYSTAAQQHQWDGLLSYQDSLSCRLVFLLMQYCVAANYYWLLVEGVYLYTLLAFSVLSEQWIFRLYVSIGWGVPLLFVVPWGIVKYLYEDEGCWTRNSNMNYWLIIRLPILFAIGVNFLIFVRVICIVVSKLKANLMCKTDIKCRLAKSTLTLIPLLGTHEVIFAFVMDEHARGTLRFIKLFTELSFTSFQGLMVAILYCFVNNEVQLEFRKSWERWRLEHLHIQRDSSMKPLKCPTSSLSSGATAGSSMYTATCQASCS
Text: (§1) Evaluation of agonist activity against human GIPR, human GLP-1R and human glucagon R using rise in intracellular cAMP concentration as index
Four copies of the cAMP response sequence and the Zeocin resistance gene were introduced to pGL3(R2.2)-Basic Vector (Promega) to construct Cre-luc(Zeo) reporter plasmid.
The human GLP-1R gene having a sequence identical to the sequence of GenBank Accession No. NM_002062 was cloned into pIRESneo3 vector to prepare hGLP-1/pIRESneo3.
The Cre-luc(Zeo) obtained in (3) and the plasmid hGLP-1/pIRESneo3 obtained in (5) were introduced to CHO-K1 cells to obtain transformants. Next, a cell line induced to express luciferase, i.e., hGLP-1R/CRE-luc/CHO-K1 cells, were selected from the obtained transformants by the addition of GLP-1.
(§2) The hGIPR/CRE-LUC/CHO-K1 cells were inoculated at a cell density of 25 μL/well (5×10^4 cells/well) to a 384-well white plate (Corning), and cultured overnight in Ham F12 medium containing 10% fetal bovine serum, 100 U/mL penicillin and 100 μg/mL streptomycin in a CO2 incubator of 37° C. A medium containing a test compound was added at a concentration of 5 μL/well to the cells, and the resultant cells were incubated for 4 hours in a CO2 incubator of 37° C. to give the final concentration of 1 μM. PicaGene LT7.5 (Toyo Ink Co., Ltd.) was added thereto at a concentration of 30 μL/well, and the mixture was shaken with light shielded. After 30 minutes, the luciferase activity was measured using a plate reader Envision (PerkinElmer). The luciferase activity in the presence of 10 nM GIP was defined as 100%, and the luciferase activity from the addition of DMSO instead of the test compound was defined as 0%. The GIPR agonist activity was calculated with a rise in intracellular cAMP concentration as an index.
The GLP-1R agonist activity was assayed in the same way as above using the hGLP-1R/CRE-luc/CHO-K1 cells. The luciferase activity in the presence of 10 nM GLP-1 was defined as 100%, and the luciferase activity from the addition of DMSO instead of the test compound was defined as 0%. The GLP-1R agonist activity was calculated with a rise in intracellular cAMP concentration as an index.

human glucagon R = molecular target: T2, human glucagon R (Homo sapiens, UniProt P47871); assay: Agonist activity against human glucagon R, CRE-luciferase reporter assay in hGlucagonR/CRE-LUC/CHO-K1 cells
T2 construct: expressed in transfected cells; host or cells: CHO-K1 (CRE-LUC/CHO-K1), plasmid hGlucagonR/pMSRα-neo
T2 sequence (P47871 26-477): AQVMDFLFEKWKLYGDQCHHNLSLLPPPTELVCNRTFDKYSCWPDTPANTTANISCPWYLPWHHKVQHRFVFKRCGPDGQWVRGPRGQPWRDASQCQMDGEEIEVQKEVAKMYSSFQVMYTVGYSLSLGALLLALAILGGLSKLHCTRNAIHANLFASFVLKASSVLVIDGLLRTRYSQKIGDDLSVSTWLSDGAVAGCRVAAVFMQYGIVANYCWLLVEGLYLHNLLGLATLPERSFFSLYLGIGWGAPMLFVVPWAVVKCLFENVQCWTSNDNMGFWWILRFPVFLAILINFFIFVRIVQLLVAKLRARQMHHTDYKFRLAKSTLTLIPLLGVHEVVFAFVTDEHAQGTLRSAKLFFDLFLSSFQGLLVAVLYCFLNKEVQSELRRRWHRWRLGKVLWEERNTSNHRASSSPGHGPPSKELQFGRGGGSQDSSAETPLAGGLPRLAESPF
Text: as §1
(§3) The luciferase reporter gene having an upstream cAMP response sequence was introduced to CHO-K1 cells to construct CRE-LUC/CHO-K1 cells.
The human glucagon R gene having a sequence identical to the sequence of GenBank Accession No. NM_000160 was cloned into pMSRα-neo vector to prepare hGlucagonR/pMSRα-neo.
The plasmid hGlucagonR/pMSRα-neo obtained in (7) was introduced to the CRE-LUC/CHO-K1 cells obtained in (2) to obtain transformants. Next, a cell line induced to express luciferase, i.e., hGlucagonR/CRE-LUC/CHO-K1 cells, were selected from the obtained transformants by the addition of glucagon.
as §2
The glucagon R agonist activity was assayed in the same way as above using the hGlucagonR/CRE-LUC/CHO-K1 cells. The luciferase activity in the presence of 10 nM glucagon was defined as 100%, and the luciferase activity from the addition of DMSO instead of the test compound was defined as 0%. The glucagon agonist activity was calculated with a rise in intracellular cAMP concentration as an index.

human GIPR = molecular target: T3, human GIPR (Homo sapiens, UniProt P48546); assay: Agonist activity against human GIPR, CRE-luciferase reporter assay (rise in intracellular cAMP) in hGIPR/CRE-LUC/CHO-K1 cells
T3 construct: expressed in transfected cells; host or cells: CHO-K1 (CRE-LUC/CHO-K1), plasmid hGIPR/pMSRα-neo
T3 sequence (P48546 22-466): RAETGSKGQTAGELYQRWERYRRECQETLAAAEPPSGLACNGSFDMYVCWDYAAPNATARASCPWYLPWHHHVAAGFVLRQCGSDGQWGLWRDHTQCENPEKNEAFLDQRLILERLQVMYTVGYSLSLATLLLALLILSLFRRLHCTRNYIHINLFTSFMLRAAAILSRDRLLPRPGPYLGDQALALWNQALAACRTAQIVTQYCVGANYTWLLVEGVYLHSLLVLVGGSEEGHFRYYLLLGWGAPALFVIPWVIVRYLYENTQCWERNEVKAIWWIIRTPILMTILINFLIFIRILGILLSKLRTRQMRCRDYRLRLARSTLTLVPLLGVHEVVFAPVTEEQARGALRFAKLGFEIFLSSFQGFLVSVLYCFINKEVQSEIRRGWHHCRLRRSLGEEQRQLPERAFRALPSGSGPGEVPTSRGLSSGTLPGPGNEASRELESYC
Text: as §1
The human GIPR gene having a sequence identical to the sequence of GenBank Accession No. U39231 was cloned into pMSRα-neo vector to prepare hGIPR/pMSRα-neo.
as §3
The plasmid hGIPR/pMSRα-neo obtained in (1) was introduced to the CRE-LUC/CHO-K1 cells obtained in (2) to obtain transformants. Next, a cell line induced to express luciferase, i.e., hGIPR/CRE-LUC/CHO-K1 cells, were selected from the obtained transformants by the addition of GIP.
as §2

Row | SMILES | EC50 (human GLP-1R) [nM] | EC50 (human glucagon R) [nM] | EC50 (human GIPR) [nM] | EC50 (human GLP-1R; hGLP-1R/CRE-luc/CHO-K1 cells, 4 hours incubation, 10 nM GLP-1 = 100%, read-out: Agonist activity (EC50) hGLP-1R) [nM] | EC50 (human glucagon R; hGlucagonR/CRE-LUC/CHO-K1 cells, 4 hours incubation, 10 nM glucagon = 100%, read-out: Agonist activity (EC50) hGCGR) [nM] | EC50 (human GIPR; hGIPR/CRE-LUC/CHO-K1 cells, 4 hours incubation, 10 nM GIP = 100%, read-out: Agonist activity (EC50) hGIPR) [nM]
1 | CC[C@H](C)[C@H](NC(=O)C(C)(C)NC(=O)[C@H](Cc1ccc(O)cc1)NC(=O)[C@H](CC(=O)O)NC(=O)[C@H](CO)NC(=O)[C@@H](NC(=O)[C@](C)(Cc1ccccc1)NC(=O)[C@@H](NC(=O)CNC(=O)[C@H](CCC(=O)O)NC(=O)C(C)(C)NC(=O)[C@@H](N)Cc1ccc(O)cc1)[C@@H](C)O)[C@@H](C)O)C(=O)NC(C)(C)C(=O)N[C@@H](CC(C)C)C(=O)N[C@@H](CC(=O)O)C(=O)N[C@@H](CCCCN)C(=O)N[C@@H](CCC(N)=O)C(=O)N[C@@H](C)C(=O)N[C@@H](CCC(N)=O)C(=O)N[C@@H](CO)C(=O)N[C@@H](CCC(=O)O)C(=O)N[C@@H](Cc1ccccc1)C(=O)N[C@H](C(=O)N[C@@H](CCCCN)C(=O)N[C@@H](Cc1c[nH]c2ccccc12)C(=O)N[C@@H](CC(C)C)C(=O)N[C@@H](CC(C)C)C(=O)N[C@@H](CCCCN)C(=O)NCC(=O)NCC(=O)N1CCC[C@H]1C(=O)N[C@@H](CO)C(=O)N[C@@H](CO)C(=O)NCC(=O)N[C@@H](C)C(=O)N1CCC[C@H]1C(=O)N1CCC[C@H]1C(=O)N1CCC[C@H]1C(=O)N[C@@H](CO)C(=O)N[C@@H](CCCCN)C(N)=O)C(C)C [Example 4] (H-Y[Aib]EGT[αMeF]TSDY[Aib]I[Aib]LDKQAQSEFVKWLLKGGPSSGAPPPSK-NH2) | 0.0099 | > 1000 | 0.0049 |  |  | 
2 | CC[C@H](C)[C@H](NC(=O)[C@H](C)NC(=O)[C@H](Cc1ccc(O)cc1)NC(=O)[C@H](CC(=O)O)NC(=O)[C@H](CO)NC(=O)[C@@H](NC(=O)[C@](C)(Cc1ccccc1)NC(=O)[C@@H](NC(=O)CNC(=O)[C@H](CCC(=O)O)NC(=O)C(C)(C)NC(=O)[C@@H](N)Cc1ccc(O)cc1)[C@@H](C)O)[C@@H](C)O)C(=O)NC(C)(C)C(=O)N[C@@H](CC(C)C)C(=O)N[C@@H](CC(=O)O)C(=O)N[C@@H](CCCCN)C(=O)N[C@@H](CCC(N)=O)C(=O)N[C@@H](C)C(=O)N[C@@H](CCC(N)=O)C(=O)N[C@@H](C)C(=O)N[C@@H](CCC(=O)O)C(=O)N[C@@H](Cc1ccccc1)C(=O)N[C@H](C(=O)N[C@@H](CCCCN)C(=O)N[C@@H](Cc1c[nH]c2ccccc12)C(=O)N[C@@H](CC(C)C)C(=O)N[C@@H](CC(C)C)C(=O)N[C@@H](CCCCN)C(=O)NCC(=O)NCC(=O)N1CCC[C@H]1C(=O)N[C@@H](CO)C(=O)N[C@@H](CO)C(=O)NCC(=O)N[C@@H](C)C(=O)N1CCC[C@H]1C(=O)N1CCC[C@H]1C(=O)N1CCC[C@H]1C(=O)N[C@@H](CO)C(N)=O)C(C)C [Example 5] (H-Y[Aib]EGT[αMeF]TSDYAI[Aib]LDKQAQAEFVKWLLKGGPSSGAPPPS-NH2) | 0.0072 | > 1000 | 0.0055 |  |  | 
3 | CC[C@H](C)[C@H](NC(=O)C(C)(C)NC(=O)[C@H](Cc1ccc(O)cc1)NC(=O)[C@H](CC(=O)O)NC(=O)[C@H](CO)NC(=O)[C@@H](NC(=O)[C@](C)(Cc1ccccc1)NC(=O)[C@@H](NC(=O)CNC(=O)[C@H](CCC(=O)O)NC(=O)C(C)(C)NC(=O)[C@@H](N)Cc1ccc(O)cc1)[C@@H](C)O)[C@@H](C)O)C(=O)NC(C)(C)C(=O)N[C@@H](CC(C)C)C(=O)N[C@@H](CC(=O)O)C(=O)N[C@@H](CCCCN)C(=O)N[C@@H](CCC(N)=O)C(=O)N[C@@H](C)C(=O)N[C@@H](CCC(N)=O)C(=O)N[C@@H](C)C(=O)N[C@@H](CCC(=O)O)C(=O)N[C@@H](Cc1ccccc1)C(=O)N[C@H](C(=O)N[C@@H](CCCCN)C(=O)N[C@@H](Cc1c[nH]c2ccccc12)C(=O)N[C@@H](CC(C)C)C(=O)N[C@@H](CC(C)C)C(=O)N[C@@H](CCCCN)C(=O)NCC(=O)NCC(=O)N1CCC[C@H]1C(=O)N[C@@H](CO)C(=O)N[C@@H](CO)C(=O)NCC(=O)N[C@@H](C)C(=O)N1CCC[C@H]1C(=O)N1CCC[C@H]1C(=O)N1CCC[C@H]1C(=O)N[C@@H](CO)C(N)=O)C(C)C [Example 6] (H-Y[Aib]EGT[αMeF]TSDY[Aib]I[Aib]LDKQAQAEFVKWLLKGGPSSGAPPPS-NH2) | 0.016 | > 1000 | 0.0073 |  |  | 
4 | CC[C@H](C)[C@H](NC(=O)[C@H](C)NC(=O)[C@H](Cc1ccc(O)cc1)NC(=O)[C@H](CC(=O)O)NC(=O)[C@H](CO)NC(=O)[C@@H](NC(=O)[C@](C)(Cc1ccccc1)NC(=O)[C@@H](NC(=O)CNC(=O)[C@H](CCC(=O)O)NC(=O)C(C)(C)NC(=O)[C@@H](N)Cc1ccc(O)cc1)[C@@H](C)O)[C@@H](C)O)C(=O)NC(C)(C)C(=O)N[C@@H](CC(C)C)C(=O)N[C@@H](CC(=O)O)C(=O)N[C@@H](CCCCN)C(=O)N[C@@H](CCC(N)=O)C(=O)N[C@@H](C)C(=O)N[C@@H](CCC(N)=O)C(=O)N[C@@H](CO)C(=O)N[C@@H](CCC(=O)O)C(=O)N[C@@H](Cc1ccccc1)C(=O)N[C@H](C(=O)N[C@@H](CCCCN)C(=O)N[C@@H](Cc1c[nH]c2ccccc12)C(=O)N[C@@H](CC(C)C)C(=O)N[C@@H](CC(C)C)C(=O)N[C@@H](CCCCN)C(=O)NCC(=O)NCC(=O)N1CCC[C@H]1C(=O)N[C@@H](CO)C(=O)N[C@@H](CO)C(=O)NCC(=O)N[C@@H](C)C(=O)N1CCC[C@H]1C(=O)N1CCC[C@H]1C(=O)N1CCC[C@H]1C(=O)N[C@@H](CO)C(N)=O)C(C)C [Example 7] (H-Y[Aib]EGT[αMeF]TSDYAI[Aib]LDKQAQSEFVKWLLKGGPSSGAPPPS-NH2) |  |  |  | 0.0088 | > 1000 | 0.0069
5 | CC[C@H](C)[C@H](NC(=O)C(C)(C)NC(=O)[C@H](Cc1ccc(O)cc1)NC(=O)[C@H](CC(=O)O)NC(=O)[C@H](CO)NC(=O)[C@@H](NC(=O)[C@](C)(Cc1ccccc1)NC(=O)[C@@H](NC(=O)CNC(=O)[C@H](CCC(=O)O)NC(=O)C(C)(C)NC(=O)[C@@H](N)Cc1ccc(O)cc1)[C@@H](C)O)[C@@H](C)O)C(=O)NC(C)(C)C(=O)N[C@@H](CC(C)C)C(=O)N[C@@H](CC(=O)O)C(=O)N[C@@H](CCCCN)C(=O)N[C@@H](CCC(N)=O)C(=O)N[C@@H](C)C(=O)N[C@@H](CCC(N)=O)C(=O)N[C@@H](CO)C(=O)N[C@@H](CCC(=O)O)C(=O)N[C@@H](Cc1ccccc1)C(=O)N[C@H](C(=O)N[C@@H](CCCCN)C(=O)N[C@@H](Cc1c[nH]c2ccccc12)C(=O)N[C@@H](CC(C)C)C(=O)N[C@@H](CC(C)C)C(=O)N[C@@H](CCCCN)C(=O)NCC(=O)NCC(=O)N1CCC[C@H]1C(=O)N[C@@H](CO)C(=O)N[C@@H](CO)C(=O)NCC(=O)N[C@@H](C)C(=O)N1CCC[C@H]1C(=O)N1CCC[C@H]1C(=O)N1CCC[C@H]1C(=O)N[C@@H](CO)C(N)=O)C(C)C [Example 8] (H-Y[Aib]EGT[αMeF]TSDY[Aib]I[Aib]LDKQAQSEFVKWLLKGGPSSGAPPPS-NH2) | 0.014 | > 1000 | 0.008 |  |  | 
